Assays:
GPR17 [1] = target: T1, GPR17 (Homo sapiens, UniProt Q13304); experiment: Calcium mobilization functional assay (GPR17 Ca2+ assay); format: cell-based; set-up: host or cells: Flp-In T-REx CHO; details: CHO hGPR17 cells, inhibition of 50 nM MDL29,951, Calcium 5 dye, FLIPR; read-out: Ca2+ assay pIC50 (converted)
In short: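 pIC50 values were fitted with a 4-parameter logistic curve. They reflect test-compound inhibition of cytosolic Ca2+ release evoked by 50 nM MDL29,951, tracked as Calcium 5 fluorescence at room temperature. Cells were CHO Flp-In T-REx stably carrying human GPR17, induced with doxycycline 1 μg/mL for 16-20 h.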

GPR17 [2] = target: T1, GPR17; experiment: cAMP accumulation functional assay (HTRF, Schild analysis); format: cell-based; set-up: host or cells: Flp-In T-REx CHO; details: CHO hGPR17 cells, Schild analysis vs MDL29,951, 5 μM forskolin, read-out: cAMP assay pA2 (converted)
In short: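 Antagonist affinity (pA2) came from Schild plots of dose ratios, based on MDL29,951 concentration-response curves fitted by 4-parameter logistic. The read-out was HTRF cAMP in 5,000 doxycycline-induced CHO hGPR17 cells per well, with 30 min compound preincubation and 60 min stimulation, at room temperature in pH 7.4 buffer.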

T1 sequence (Q13304 whole entry): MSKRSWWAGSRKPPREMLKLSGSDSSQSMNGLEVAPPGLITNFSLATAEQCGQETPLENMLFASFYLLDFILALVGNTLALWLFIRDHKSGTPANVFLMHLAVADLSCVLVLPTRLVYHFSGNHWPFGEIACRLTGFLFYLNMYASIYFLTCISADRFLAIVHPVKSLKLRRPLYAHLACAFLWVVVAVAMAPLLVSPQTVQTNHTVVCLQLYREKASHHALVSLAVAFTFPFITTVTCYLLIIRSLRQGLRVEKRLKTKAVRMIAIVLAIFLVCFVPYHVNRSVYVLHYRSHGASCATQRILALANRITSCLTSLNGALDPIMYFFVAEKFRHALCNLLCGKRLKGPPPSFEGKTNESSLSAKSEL

Row | IC50 (GPR17 [1]) | Kb (GPR17 [2]) | SMILES
1 | < 3.16 nM | < 3.16 nM | N#Cc1cc(F)c(NS(=O)(=O)c2c[nH]c3cc(C(F)(F)F)ccc23)cc1F [Compound I-184, N-(4-cyano-2,5-difluorophenyl)-6-(trifluoromethyl)-1H-indole-3-sulfonamide]
2 | < 3.16 nM | < 3.16 nM | COc1nc(NS(=O)(=O)c2c[nH]c3cc(Cl)ccc23)c(F)cc1CC#N [Compound I-255, 6-chloro-N-[5-(cyanomethyl)-3-fluoro-6-methoxypyridin-2-yl]-1H-indole-3-sulfonamide]
3 | < 3.16 nM | < 3.16 nM | N#Cc1ccc(NS(=O)(=O)c2c[nH]c3nc(Br)ccc23)c(F)c1 [Compound I-177, 6-bromo-N-(4-cyano-2-fluorophenyl)-1H-pyrrolo[2,3-b]pyridine-3-sulfonamide]
4 | 3.16 to 31.6 nM | 3.16 to 31.6 nM | O=S(=O)(Nc1cc(F)c(Cl)cc1F)c1c[nH]c2cc(Br)cc(F)c12 [Compound I-251, 6-bromo-N-(4-chloro-2,5-difluorophenyl)-4-fluoro-1H-indole-3-sulfonamide]
5 | 3.16 to 31.6 nM | 3.16 to 31.6 nM | O=C1OCc2cc(F)c(NS(=O)(=O)c3c[nH]c4cc(Cl)ccc34)cc21 [Compound I-243, 6-chloro-N-(6-fluoro-3-oxo-1,3-dihydro-2-benzofuran-5-yl)-1H-indole-3-sulfonamide]
6 | < 3.16 nM | < 3.16 nM | N#Cc1cc(F)c(NS(=O)(=O)c2c[nH]c3cc(Br)ccc23)cc1F [Compound I-188, 6-bromo-N-(4-cyano-2,5-difluorophenyl)-1H-indole-3-sulfonamide]
7 | 3.16 to 31.6 nM | 3.16 to 31.6 nM | O=S(=O)(Nc1ccc(Cl)cc1F)c1c[nH]c2nc(Cl)ccc12 [Compound I-224, 6-chloro-N-(4-chloro-2-fluorophenyl)-1H-pyrrolo[2,3-b]pyridine-3-sulfonamide]
8 | 3.16 to 31.6 nM | 3.16 to 31.6 nM | COc1ccc2c(S(=O)(=O)Nc3cc(F)c(Cl)cc3F)c[nH]c2n1 [Compound I-281, N-(4-chloro-2,5-difluorophenyl)-6-methoxy-1H-pyrrolo[2,3-b]pyridine-3-sulfonamide]
9 | 3.16 to 31.6 nM | > 31.6 nM | N#Cc1ccc(NS(=O)(=O)c2c[nH]c3ncc(I)cc23)cc1 [Compound I-79, N-(4-cyanophenyl)-5-iodo-1H-pyrrolo[2,3-b]pyridine-3-sulfonamide]
10 | 3.16 to 31.6 nM | < 3.16 nM | N#CCc1ccc(NS(=O)(=O)c2c[nH]c3cc(Cl)ccc23)c(F)c1 [Compound I-206, 6-chloro-N-[4-(cyanomethyl)-2-fluorophenyl]-1H-indole-3-sulfonamide]
11 | 3.16 to 31.6 nM | > 31.6 nM | N#Cc1ccc(NS(=O)(=O)c2c[nH]c3cc(-c4ccccc4)ccc23)c(F)c1 [Compound I-233, N-(4-cyano-2-fluorophenyl)-6-phenyl-1H-indole-3-sulfonamide]
12 | < 3.16 nM | < 3.16 nM | COC/C=C/c1cc(F)c(NS(=O)(=O)c2c[nH]c3cc(Cl)ccc23)nc1F [Compound I-252, 6-chloro-N-{3,6-difluoro-5-[(1E)-3-methoxyprop-1-en-1-yl]pyridin-2-yl}-1H-indole-3-sulfonamide]
13 | 3.16 to 31.6 nM | 3.16 to 31.6 nM | O=S(=O)(Nc1ccc(S(F)(F)(F)(F)F)cc1F)c1c[nH]c2nc(Cl)ccc12 [Compound I-295, 6-chloro-N-[2-fluoro-4-(pentafluoro-lambda-6-sulfanyl)phenyl]-1H-pyrrolo[2,3-b]pyridine-3-sulfonamide]
14 | > 31.6 nM | > 31.6 nM | Cc1ccnc(NS(=O)(=O)c2c[nH]c3cc(Cl)ccc23)c1 [Compound I-59]
15 | 3.16 to 31.6 nM | 3.16 to 31.6 nM | N#Cc1ccc(NS(=O)(=O)c2c[nH]c3nc(Cl)ccc23)c(F)c1 [Compound I-108, 6-chloro-N-(4-cyano-2-fluorophenyl)-1H-pyrrolo[2,3-b]pyridine-3-sulfonamide]
16 | > 31.6 nM | > 31.6 nM | O=S(=O)(Nc1cc(F)ccc1F)c1c[nH]c2nc(Cl)ccc12 [Compound I-90, 6-chloro-N-(2,5-difluorophenyl)-1H-pyrrolo[2,3-b]pyridine-3-sulfonamide]
17 | 3.16 to 31.6 nM | 3.16 to 31.6 nM | N#CCOc1cc(F)c(NS(=O)(=O)c2coc3cc(Cl)ccc23)cc1F [Compound I-342, 6-chloro-N-[4-(cyanomethoxy)-2,5-difluorophenyl]-1-benzofuran-3-sulfonamide]
18 | < 3.16 nM | 3.16 to 31.6 nM | N#Cc1cc(F)c(NS(=O)(=O)c2c[nH]c3cc(OCc4ccccc4)ccc23)cc1F [Compound I-153, 6-(benzyloxy)-N-(4-cyano-2,5-difluorophenyl)-1H-indole-3-sulfonamide]
19 | < 3.16 nM | < 3.16 nM | O=S(=O)(Nc1ncc(Cl)cc1F)c1c[nH]c2cc(Br)ccc12 [Compound I-290, 6-Bromo-N-(5-chloro-3-fluoropyridin-2-yl)-1H-indole-3-sulfonamide]
20 | > 31.6 nM | > 31.6 nM | N#Cc1ccc2c(S(=O)(=O)Nc3ccc(Cl)cc3F)c[nH]c2c1 [Compound I-76, N-(4-chloro-2-fluorophenyl)-6-cyano-1H-indole-3-sulfonamide]
21 | 3.16 to 31.6 nM | 3.16 to 31.6 nM | O=S(=O)(Nc1cc(F)cc(F)c1Cl)c1c[nH]c2cc(Cl)ccc12 [Compound I-55, 6-chloro-N-(2-chloro-3,5-difluorophenyl)-1H-indole-3-sulfonamide]
22 | < 3.16 nM | < 3.16 nM | CC1OC(=O)c2cc(NS(=O)(=O)c3c[nH]c4cc(Cl)ccc34)c(F)cc21 (stereo not shown) [Compound I-327, 6-chloro-N-(6-fluoro-1-methyl-3-oxo-1,3-dihydro-2-benzofuran-5-yl)-1H-indole-3-sulfonamide]
23 | < 3.16 nM | < 3.16 nM | N#Cc1c(Cl)ccc2c(S(=O)(=O)Nc3cc(F)c(Cl)cc3F)c[nH]c12 [Compound I-256, 6-chloro-N-(4-chloro-2,5-difluorophenyl)-7-cyano-1H-indole-3-sulfonamide]
24 | > 31.6 nM | > 31.6 nM | O=C1OCc2ccc(NS(=O)(=O)c3c[nH]c4cc(Cl)ccc34)cc21 [Compound I-8, 6-chloro-N-(3-oxo-1,3-dihydro-2-benzofuran-5-yl)-1H-indole-3-sulfonamide]
25 | 3.16 to 31.6 nM | 3.16 to 31.6 nM | O=S(=O)(Nc1cc(F)c(F)cc1F)c1c[nH]c2nc(Br)ccc12 [Compound I-95, 6-bromo-N-(2,4,5-trifluorophenyl)-1H-pyrrolo[2,3-b]pyridine-3-sulfonamide]
26 | 3.16 to 31.6 nM | < 3.16 nM | O=S(=O)(Nc1cc(F)c(Cl)cc1F)c1c[nH]c2c(Cl)c(Br)ccc12 [Compound I-347, 6-bromo-7-chloro-N-(4-chloro-2,5-difluorophenyl)-1H-indole-3-sulfonamide]
27 | < 3.16 nM | 3.16 to 31.6 nM | O=S(=O)(Nc1ccc2nsnc2c1)c1c[nH]c2nc(Cl)ccc12 [Compound I-179, N-(2,1,3-benzothiadiazol-5-yl)-6-chloro-1H-pyrrolo[2,3-b]pyridine-3-sulfonamide]
28 | < 3.16 nM | < 3.16 nM | CC(C)c1ccc2c(S(=O)(=O)Nc3ccc(C#N)cc3F)c[nH]c2c1 [Compound I-170, N-(4-cyano-2-fluorophenyl)-6-(propan-2-yl)-1H-indole-3-sulfonamide]
29 | 3.16 to 31.6 nM | < 3.16 nM | C#Cc1ccc(NS(=O)(=O)c2c[nH]c3c2ccc2cccnc23)c(F)c1 [Compound I-306, N-(4-ethynyl-2-fluorophenyl)-1H-pyrrolo[3,2-h]quinoline-3-sulfonamide]
